Test results reported in paper PMC10411625, “Rationally designed stapled peptides allosterically inhibit PTBP1–RNA-binding” (Chemical Science, 2023).
Numbering of substitutions follows the chain as printed. {FAM} = fluorescein (FAM) label

Key:
[1] = molecular target: T1, PTBP1 RRM1 (MBP-RRM1, G41-A163) (Homo sapiens, UniProt P26599); experiment: Fluorescence polarization binding of FAM-RNA to PTBP1 RRM1; conditions: FP, 5 nM FAM-labelled RNA, 20 mM sodium phosphate pH 8.0, 50 mM NaCl, 0.001% Tween20, 20 °C, 30 min
T1 construct: (G41-A163); His tag; made in house; host or cells: E. coli BL21 DE3 RIL
T1 sequence (P26599 41-163): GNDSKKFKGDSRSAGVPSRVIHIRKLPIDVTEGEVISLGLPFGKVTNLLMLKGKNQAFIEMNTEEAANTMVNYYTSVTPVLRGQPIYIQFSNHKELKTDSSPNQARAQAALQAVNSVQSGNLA
Excerpt: (§1) To confirm the role of the α3-helix described by the Allain group we performed fluorescence polarization (FP) experiments with various PTBP1 protein constructs and two RNA sequences.[25] The first set of proteins contained either the single RRM1, RRM1 lacking the α3-helix (RRM1Δα3) or RRM1–L151G (Fig. 1A and C). The L151G mutation was previously described by the Allain group to break the fold of the helix and reduce RNA-binding 2.3 fold as measured by ITC.[25] As tracer in the FP experiments, we used a FAM-labelled short RNA (RNA-1) with a single PTBP1 binding site (UCUU) which can accommodate a single RRM (Fig. 1B). […] The L151G mutation reduced binding 3.6-fold which is somewhat higher than what was observed previously but in the same range. […] To see whether the effect of the helix was also present in larger constructs we measured the affinity of RRM1 and 2 combined (RRM12) as well as the RRM12–L151G mutant. […]
(§2) size exclusion chromatography (Superdex 75 16/60 or 26/60) with SEC buffer (50 mM Tris, 200 mM NaCl). Protein homogeneity was assessed by the size exclusion chromatogram and purity was checked by SDS-PAGE analysis to be >= 90%.
(§3) The gene encoding for SRSF1-RRM12 (1-195) was subcloned into pOPIN-His expression vector and expressed in E. coli BL21 (DE3). […]
(§4) Fluorescence polarization assay with PTBP1 […]

[2] = molecular target: T2, PTBP1 RRM1-L151G (Homo sapiens, UniProt P26599, L151G); experiment: Fluorescence polarization binding of FAM-RNA to PTBP1 RRM1-L151G
T2 construct: (G41-A163,; His tag; made in house; host or cells: E. coli BL21 DE3 RIL
T2 sequence (P26599 41-163 L151G): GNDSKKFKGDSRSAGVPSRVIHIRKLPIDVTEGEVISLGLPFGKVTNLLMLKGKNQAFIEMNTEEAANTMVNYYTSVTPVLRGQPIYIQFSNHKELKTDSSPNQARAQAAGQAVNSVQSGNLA
Excerpt: as §1, §2, §3, §4

[3] = molecular target: T3, PTBP1 RRM2 (MBP-RRM2, M177-D284) (Homo sapiens, UniProt P26599); experiment: Fluorescence polarization binding of FAM-RNA to PTBP1 RRM2; conditions: FP, 5 nM FAM-labelled RNA, 20 mM sodium phosphate pH 8.0, 50 mM NaCl, 0.001% Tween20, 20 °C, 30 min
T3 construct: (M177- D284); His tag; made in house; host or cells: E. coli BL21 DE3 RIL
T3 sequence (P26599 177-284): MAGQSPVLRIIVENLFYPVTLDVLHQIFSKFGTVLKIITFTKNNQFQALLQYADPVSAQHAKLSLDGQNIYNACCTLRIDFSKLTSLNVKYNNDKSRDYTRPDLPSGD
Excerpt: as §1, §2, §3, §4

[4] = molecular target: T4, PTBP1 RRM12 (P57-V265) (Homo sapiens, UniProt P26599); experiment: Fluorescence polarization binding of FAM-RNA to PTBP1 RRM12; conditions: FP, 5 nM FAM-labelled RNA, 20 mM sodium phosphate pH 8.0, 50 mM NaCl, 0.001% Tween20, 20 °C, 30 min
T4 construct: (P57-V265); MBP (from pMAL vector); His tag; made in house; host or cells: E. coli BL21 DE3 RIL
T4 sequence (P26599 57-265): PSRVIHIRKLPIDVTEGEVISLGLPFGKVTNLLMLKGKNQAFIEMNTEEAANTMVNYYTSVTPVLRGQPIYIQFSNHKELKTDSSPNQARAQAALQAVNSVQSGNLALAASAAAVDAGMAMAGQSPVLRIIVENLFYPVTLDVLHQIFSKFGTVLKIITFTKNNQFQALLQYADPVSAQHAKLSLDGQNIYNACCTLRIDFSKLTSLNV
Excerpt: as §1, §2, §3, §4

[5] = molecular target: T5, PTBP1 RRM1Δα3 (RRM1 lacking the α3-helix) (Homo sapiens, UniProt P26599); experiment: Fluorescence polarization binding of FAM-RNA to PTBP1 RRM1Δα3; conditions: FP, 5 nM FAM-labelled RNA, 20 mM sodium phosphate pH 8.0, 50 mM NaCl, 0.001% Tween20, 20 °C, 30 min
T5 construct: (G41-S140); His tag (N); made in house; host or cells: E. coli BL21 DE3 RIL
Excerpt: as §1, §2, §3, §4

[6] = molecular target: T6, PTBP1 RRM12-L151G (Homo sapiens, UniProt P26599, L151G); experiment: Fluorescence polarization binding of FAM-RNA to PTBP1 RRM12-L151G
T6 construct: (P57-V265); MBP (from pMAL vector); His tag; made in house; host or cells: E. coli BL21 DE3 RIL
T6 sequence (P26599 57-265 L151G): T4 sequence (P26599 57-265) with L95G
Excerpt: as §1, §2, §3, §4

[7] = FP, 5 nM FAM-labelled RNA, 20 mM sodium phosphate pH 8.0, 50 mM NaCl, 0.001% Tween20, 20 °C, 30 min

In the case of “RNA-2: FAM-AUUUUUCCAUCUUUGUAUC, sequence of microRNA miR-29b-2, two poly(U) motifs (RNA, 5' {FAM}, backbone not given here)”, the Kd [1] is reported as 90 ± 23 nM, the Kd [2, 7] is reported as 218 ± 11 nM and the “reduction of RNA affinity by L151G mutation, RRM1-L151G versus RRM1” value ([2]; from FP KD values) is reported as 2.4 fold. The Kd [3] was 721 ± 308 nM, the Kd [4] was 17 ± 2 nM and the Kd [5] was 6450 ± 1360 nM. The Kd [6, 7] was 42 ± 1 nM and the “reduction of RNA affinity by L151G mutation, RRM12-L151G versus RRM12” value ([6]; from FP KD values) was 2.5 fold.
